The results in this text go back to ChEMBL document CHEMBL3352203, “Bioactive sulfur-containing sulochrin dimers and other metabolites from an Alternaria sp. isolate from a Hawaiian soil sample” (J Nat Prod, 2014).

In brackets after ≈: the same amount, converted by molar mass.

The term MIC denotes the smallest concentration in the dilution series that meets the test's criterion for growth inhibition. A lower MIC goes with greater potency. Usually IC50 stands for the concentration that gives 50% inhibition.

For assay [1], the system named is Staphylococcus aureus. The assay is described as follows: Antibacterial activity against Staphylococcus aureus ATCC 700787 after 17 hrs. The format is functional. The following applies: ATCC 700787, 17 h.
A short description of assay [2]: Cytotoxicity against human MIAPaCa2 cells assessed as after 48 hrs by MTT assay. The following applies: MIA PaCa-2, 48 h. The format is functional, cell-based. On the technique in general: Formazan colour is commonly taken as a measure of viable cells.

Turning to `COC(=O)c1c(Sc2c(O)cc(OC)c(C(=O)c3c(O)cc(C)cc3O)c2C(=O)OC)c(O)cc(OC)c1C(=O)c1c(O)cc(C)cc1O`, the MIC in assay [1] came out at 4.1 µM (≈ 2.85 µg/mL). In addition, the IC50 in assay [2] worked out at 50.8 µM.

Regarding `COC(=O)c1c(Sc2c(O)cc3oc4cc(C)cc(O)c4c(=O)c3c2C(=O)OC)c(O)cc(OC)c1C(=O)c1c(O)cc(C)cc1O`, it took 4.9 µM (≈ 3.25 µg/mL) to inhibit growth in assay [1] (MIC). The IC50 in assay [2] was 30.3 µM. `COC(=O)c1c(Sc2c(O)cc3oc4cc(C)cc(O)c4c(=O)c3c2C(=O)OC)c(O)cc2oc3cc(C)cc(O)c3c(=O)c12` showed an MIC in assay [1] of 3.2 µM (≈ 2.02 µg/mL). Moreover, the IC50 in assay [2] came to 29.3 µM. Molecule `O=C(N[C@H](CO)[C@H](O)c1ccc([N+](=O)[O-])cc1)C(Cl)Cl` [CHLORAMPHENICOL] displayed an MIC in assay [1] of 5 µM (≈ 1.62 µg/mL).
